Test results: the supplement of paper PMC5908809

Tests used:
[1] = test system: normal primary NK cells, pool 3 (3 donors) (IL-2 2.5 ng/mL); test: drug sensitivity score (DSS) (DSS units); higher = more sensitive; extreme values may be limits of the assay; settings: 72 h
SNK-6 (IL-2 2.5 ng/mL) [2] = test: as above; settings: 72 h
[3] = test system: normal primary NK cells, pool 2 (3 donors) (IL-2 2.5 ng/mL); test: as above; settings: 72 h
NK-92 (IL-2 2.5 ng/mL) [4] = test: as above; settings: 72 h
DERL-7 (IL-2 2.5 ng/mL) [5] = test: as above; settings: 72 h
IMC-1 (IL-2 20 ng/mL) [6] = test: as above; settings: 72 h
NK-YS (IL-2 2.5 ng/mL) [7] = test: as above; settings: 72 h
NKL (IL-2 2.5 ng/mL) [8] = test: as above; settings: 72 h
[9] = test system: normal primary NK cells, pool 1 (3 donors), resting (IL-2 0 ng/mL); test: as above; settings: 72 h
YT (IL-2 2.5 ng/mL) [10] = test: as above; settings: 72 h
[11] = test system: normal primary NK cells, pool 1 (3 donors) (IL-2 2.5 ng/mL); test: as above; settings: 72 h
KAI3 (IL-2 2.5 ng/mL) [12] = test: as above; settings: 72 h
KHYG-1 (IL-2 2.5 ng/mL) [13] = test: as above; settings: 72 h
[14] = test system: normal NK cells expanded with K562-aAPC; test: percent inhibition of viability; higher = more inhibition; settings: 72 h, IL-2 2.5 ng/mL
Protocol: (§1)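 Drug sensitivity and resistance testing on K562-aAPC-expanded normal NK cells: 5 concentrations (10-fold steps over a 10,000-fold range), 72 h at 37 °C, viability by CellTiter-Glo normalised to DMSO and benzethonium chloride controls; DSS from the fitted curve.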

[15] = test system: normal NK cells expanded with K562-aAPC; test: drug sensitivity score (DSS) (DSS units); higher = more sensitive; extreme values may be limits of the assay; settings: 72 h; IL-2 2.5 ng/mL
Protocol: as §1

[16] = test system: normal primary NK cells, pool 3 (3 donors) (IL-2 2.5 ng/mL); test: percent inhibition of viability; higher = more inhibition; settings: 72 h
SNK-6 (IL-2 2.5 ng/mL) [17] = test: as above; settings: 72 h
[18] = test system: normal primary NK cells, pool 2 (3 donors) (IL-2 2.5 ng/mL); test: as above; settings: 72 h
NK-92 (IL-2 2.5 ng/mL) [19] = test: as above; settings: 72 h
DERL-7 (IL-2 2.5 ng/mL) [20] = test: as above; settings: 72 h
IMC-1 (IL-2 20 ng/mL) [21] = test: as above; settings: 72 h
NK-YS (IL-2 2.5 ng/mL) [22] = test: as above; settings: 72 h
NKL (IL-2 2.5 ng/mL) [23] = test: as above; settings: 72 h
[24] = test system: normal primary NK cells, pool 1 (3 donors), resting (IL-2 0 ng/mL); test: as above; settings: 72 h
YT (IL-2 2.5 ng/mL) [25] = test: as above; settings: 72 h
[26] = test system: normal primary NK cells, pool 1 (3 donors) (IL-2 2.5 ng/mL); test: as above; settings: 72 h
KAI3 (IL-2 2.5 ng/mL) [27] = test: as above; settings: 72 h
KHYG-1 (IL-2 2.5 ng/mL) [28] = test: as above; settings: 72 h

CNCc1ccc(-c2[nH]c3cc(F)cc4c3c2CCNC4=O)cc1 [Rucaparib] (max concentration tested 10000 nM)
Settings	drug sensitivity score
DERL-7 (IL-2 2.5 ng/mL) [5]	1.29
IMC-1 (IL-2 20 ng/mL) [6]	1.47
KAI3 (IL-2 2.5 ng/mL) [12]	4.23
KHYG-1 (IL-2 2.5 ng/mL) [13]	1.18
NK-92 (IL-2 2.5 ng/mL) [4]	3.52
NK-YS (IL-2 2.5 ng/mL) [7]	6.07
NKL (IL-2 2.5 ng/mL) [8]	13.3
SNK-6 (IL-2 2.5 ng/mL) [2]	1.5
YT (IL-2 2.5 ng/mL) [10]	0.68
[1]	0
[3]	0
[9]	0
[11]	0
[15]	1.54

percent inhibition of viability [%]
Settings	1 nM	10 nM	100 nM	1000 nM	10000 nM
DERL-7 (IL-2 2.5 ng/mL) [20]	-9.87	10	4.56	3.4	22.7
IMC-1 (IL-2 20 ng/mL) [21]	-6.39	-3.67	-0.13	1.12	30.4
KAI3 (IL-2 2.5 ng/mL) [27]	-1.49	2.99	3.22	18.5	43.5
KHYG-1 (IL-2 2.5 ng/mL) [28]	-3.58	-2.03	-1.44	4.57	20
NK-92 (IL-2 2.5 ng/mL) [19]	-18.8	8.56	-9.2	6.16	47.7
NK-YS (IL-2 2.5 ng/mL) [22]	-2.32	-3.72	1.59	11.2	75.7
NKL (IL-2 2.5 ng/mL) [23]	-15.5	5.49	23.9	53.6	87.9
SNK-6 (IL-2 2.5 ng/mL) [17]	7.29	-11.5	-2.3	1	31
YT (IL-2 2.5 ng/mL) [25]	-4.68	-5.01	-3.45	2.32	17.4
[14]	-4.01	-1.44	-1.55	6.35	21.8
[16]	-0.27	12.1	3.56	-0.98	7.3
[18]	-2.83	5.08	-1.77	-1.32	4.05
[24]	3.79	19.2	4.4	7.5	-5.08
[26]	4.59	15.4	12.4	3.34	18.9

CC[C@@H]1C(=O)N(C)c2cnc(Nc3ccc(C(=O)N[C@H]4CC[C@H](N5CCN(CC6CC6)CC5)CC4)cc3OC)nc2N1C(C)C [Volasertib] (max concentration tested 1000 nM)
Settings	drug sensitivity score
DERL-7 (IL-2 2.5 ng/mL) [5]	20.2
IMC-1 (IL-2 20 ng/mL) [6]	17.2
KAI3 (IL-2 2.5 ng/mL) [12]	8.7
KHYG-1 (IL-2 2.5 ng/mL) [13]	18.4
NK-92 (IL-2 2.5 ng/mL) [4]	21.2
NK-YS (IL-2 2.5 ng/mL) [7]	11.7
NKL (IL-2 2.5 ng/mL) [8]	11.5
SNK-6 (IL-2 2.5 ng/mL) [2]	16.3
YT (IL-2 2.5 ng/mL) [10]	13.8
[1]	0
[3]	1.57
[9]	0.37
[11]	1.12
[15]	9.75

percent inhibition of viability [%]
Settings	0.1 nM	1 nM	10 nM	100 nM	1000 nM
DERL-7 (IL-2 2.5 ng/mL) [20]	6.13	1.89	15.1	98.3	95
IMC-1 (IL-2 20 ng/mL) [21]	-3.21	-4.2	2.24	94	93.2
KAI3 (IL-2 2.5 ng/mL) [27]	2.62	2.62	15	38.7	51.1
KHYG-1 (IL-2 2.5 ng/mL) [28]	-0.67	-1.62	4.85	98.4	99.2
NK-92 (IL-2 2.5 ng/mL) [19]	-14.8	-9.97	33.1	92	82.6
NK-YS (IL-2 2.5 ng/mL) [22]	-1.3	1.64	5.27	59	51
NKL (IL-2 2.5 ng/mL) [23]	-8.73	-9.25	-5.94	65.4	40.5
SNK-6 (IL-2 2.5 ng/mL) [17]	8.84	8.4	39	65.5	42.1
YT (IL-2 2.5 ng/mL) [25]	-2.13	1.45	2.63	73.9	70.2
[14]	0.48	-0.94	-1.6	54.3	54.2
[16]	-12.7	-9.54	-12.6	-7.36	8.33
[18]	-9.16	-9.48	-8.67	-4.83	38.6
[24]	8.74	-8.57	-4.01	0.78	16
[26]	-2.22	-7	-3.63	-0.83	28.3
